What was measured:
Format in all cases: cell-based, human
[1] = test system: markers of undifferentiated stem cells, Sox2, Nanog, and Oct4; test: RT-PCR of Sox2, Nanog, Oct4 in two-dimensionally cultured BIO-treated hMSCs, normalized to β-actin
Method: (§1) RT-PCR was used to assess gene expression of hMSCs over time. At days: 0 (before BIO treatment), 1, 3, 6, 19, 29, 34, 37, and 41, samples were lysed and total RNA was isolated (ENZA Total RNA Kit, Omega). Reverse transcription was performed using the iScript cDNA Synthesis Kit (Bio-Rad). The reverse transcription reaction was incubated at 25° C. for 5 min, 42° C. for 30 min, and terminated at 85° C. for 5 min. PCR was performed using a CFX96 Real-Time PCR System (Bio-Rad), monitoring sybrgreen products (SsoFastEvaGreen Master Mix, Bio-Rad). Primers for β-actin, sex determining region Y-box 2 (Sox2), Nanog homobox (Nanog), and octamer-binding transcription factor 4 (Oct4), core-binding factor subunit alpha-1 (Cbfa1, also known as Runx2), sex determining region Y-box 9 (Sox9), and peroxisome proliferator-activated receptor gamma (PPARγ) were used (Table 2). The PCR parameters used were as follows: hold at 95° C. for 5 min, followed by 40 cycles of: 95° C. for 15 sec denaturation, 60° C. (β-actin, Sox2, Sox9), or 57° C. (Nanog, Oct4, Cbfa1), or 55° C. (PPARγ) for 60 sec annealing, and 72° C. for 20 sec extension. Threshold cycle (CT) analysis was used to quantify PCR products normalized to the cellular housekeeping gene β-actin. Relative gene quantification was performed using the Pfaffl Method, taking into account the variation between primer efficiencies.
To more closely examine BIO's effects on hMSCs gene expression profiles for the markers of undifferentiated stem cells sex determining region Y-box 2 (Sox2), Nanog homobox (Nanog), and octamer-binding transcription factor 4 (Oct4) were monitored and normalized to the housekeeping gene β-actin. […] RNA was collected just before, and 1, 3, 6, 19, 27, 34, 37, and 41 days after the BIO treatment Results were quantified over time and again, normalized to both the housekeeping gene β-actin and untreated controls (0 μM BIO), and the results are shown in FIG. 5.

[2] = test system: PEG-encapsulated hMSCs; test: PEG-encapsulated hMSC proliferation by total cellular DNA concentration (PicoGreen)
Method: FIG. 7 Schematic representation of 18 day PEG-encapsulated hMSC culture after 24 hr exposure to BIO-containing media (A). Cell DNA concentration was quantified on days 0, 1, 5, 12, and 18 and shown to undergo a dose-dependent, BIO-mediated increase in proliferation (B), as previously shown in two-dimensional cultures. Representative LIVE/DEAD confocal images of PEG-encapsulated BIO-treated hMSC cultures (C).
A 10 wt % solution of PEGDM was prepared in phosphate buffered saline (PBS) with 2.0 mM acryloyl-PEG-RGDS. The photoinitiator lithium phenyl-2,4,6-trimethylbenzoylphosphinate (LAP) was synthesized using conventional techniques and added at a final concentration of 0.05 wt %. Trypsinized hMSCs were centrifuged to form pellets and counted. The PEG macromer solution was added to the cell pellet, and volumes were adjusted to achieve a final cell concentration of 25 million cells/mL. Using a sterile 1 mL syringe with the tip removed as a mold, 40 μL of PEG/cell solution was added and exposed to long-wavelength 365 nm light (5 mW/cm^2 intensity) for 10 min at room temperature. […]
Encapsulated hMSC proliferation was assessed using total cellular DNA concentration, assuming constant DNA per cell, using a Quant-iT PicoGreen dsDNA Assay Kit (Invitrogen). […]

[3] = test system: markers of undifferentiated stem cells, Sox2, Nanog, and Oct4; test: RT-PCR of Sox2, Nanog, Oct4 in PEG-encapsulated BIO-treated hMSCs; settings: for Nanog gene expression relative to untreated controls / Oct4 gene expression relative to untreated controls / Sox2 gene expression relative to untreated controls: 5 μM BIO
Method: as §1
A 10 wt % solution of PEGDM was prepared in phosphate buffered saline (PBS) with 2.0 mM acryloyl-PEG-RGDS. The photoinitiator lithium phenyl-2,4,6-trimethylbenzoylphosphinate (LAP) was synthesized using conventional techniques and added at a final concentration of 0.05 wt %. Trypsinized hMSCs were centrifuged to form pellets and counted. The PEG macromer solution was added to the cell pellet, and volumes were adjusted to achieve a final cell concentration of 25 million cells/mL. Using a sterile 1 mL syringe with the tip removed as a mold, 40 μL of PEG/cell solution was added and exposed to long-wavelength 365 nm light (5 mW/cm^2 intensity) for 10 min at room temperature. After photopolymerization was complete, the cell/hydrogel disks were removed from the syringes and placed in 24-well tissue culture plates (Greiner Bio-One, Monroe, N.C.) with growth media. The constructs were cultured up to 3 weeks at 37° C. and 5% CO2 with media changes occurring every three days.
Encapsulated hMSC viability, BIO treatment, and assessment of gene expression was performed as described in Section 2.3 with exception of cell lysate collection. For assessment of gene expression hMSC-PEG constructs were homogenized in lysis buffer and centrifuged to pellet polymerized PEG. The supernatant was then collected for analysis.

## O=C1Nc2cc(Br)ccc2/C1=C1/Nc2ccccc2/C1=N\O [BIO, 6-bromoindirubin-3′-oxime]
[1]; 2 μM BIO, day 1, 2D
  Nanog gene expression compared to untreated control: 5.4 fold
  Oct4 gene expression compared to untreated control: 5.1 fold
  Sox2 gene expression compared to untreated control: 7.1 fold
[1]; 2 μM BIO, day 3, 2D
  Nanog gene expression compared to untreated control: 1.0 fold
  Oct4 gene expression compared to untreated control: 3.4 fold
  Sox2 gene expression compared to untreated control: 4.4 fold
[1]; 5 μM BIO, day 1, 2D
  Nanog gene expression compared to untreated control: 15.3 fold
  Oct4 gene expression compared to untreated control: 16.9 fold
  Sox2 gene expression compared to untreated control: 96.4 fold
[1]; 5 μM BIO, day 3, 2D
  Nanog gene expression compared to untreated control: 4.8 fold
  Oct4 gene expression compared to untreated control: 9.8 fold
  Sox2 gene expression compared to untreated control: 17.7 fold
[1]; day 1, 2 uM BIO
  increase of Nanog expression relative to untreated controls: 797%
  increase of Oct4 expression relative to untreated controls: 545%
  increase of Sox2 expression relative to untreated controls: 677%
[1]; day 1, 5 uM BIO
  increase of Nanog expression relative to untreated controls: 2247%
  increase of Oct4 expression relative to untreated controls: 1800%
  increase of Sox2 expression relative to untreated controls: 9180%
[1]; day 3, 2 uM BIO
  increase of Nanog expression relative to untreated controls: 71%
  increase of Oct4 expression relative to untreated controls: 263%
  increase of Sox2 expression relative to untreated controls: 312%
[1]; day 3, 5 uM BIO
  increase of Nanog expression relative to untreated controls: 324%
  increase of Oct4 expression relative to untreated controls: 755%
  increase of Sox2 expression relative to untreated controls: 1238%
[2]; 5 uM BIO
  3D proliferation relative to untreated control: 120%
[2]; 5 μM BIO, at both days 12 and 18, PEG hydrogels
  increase in proliferation (normalized DNA concentration) versus 0 μM: 20%
[3]; PEG hydrogel-encapsulated hMSCs
  time at which Sox2, Nanog, and Oct4 expression returned to basal levels: ~18 days
[3]; day 1, PEG-encapsulated
  Nanog gene expression relative to untreated controls: 2.4 fold
  Oct4 gene expression relative to untreated controls: 3.5 fold
  Sox2 gene expression relative to untreated controls: 2.2 fold
[3]; day 12, PEG-encapsulated
  Nanog gene expression relative to untreated controls: 2.7 fold
  Oct4 gene expression relative to untreated controls: 4.3 fold
  Sox2 gene expression relative to untreated controls: 4.1 fold
